Measurements taken from ChEMBL document CHEMBL4428125, “8-Substituted 1,3-dimethyltetrahydropyrazino[2,1-f]purinediones: Water-soluble adenosine receptor antagonists and monoamine oxidase B inhibitors” (Bioorg Med Chem, 2016).
Converted amounts (≈) assume the structure as drawn. The source made the active and inactive calls. The rule behind the calls is not given here.

What was measured:
Adenosine receptor A2a [1] = target: T1, Adenosine receptor A2a (Homo sapiens, UniProt P29274); assay: Agonist activity at recombinant human A2A receptor expressed in CHO cells assessed as increase in forskolin-induced cAMP level at 10 uM preincubated for 20 mins prior to forskolin-stimulation measure after 5 mins by liquid scintillation counting method; assay type: functional, cell-based
T1 sequence (P29274 whole entry): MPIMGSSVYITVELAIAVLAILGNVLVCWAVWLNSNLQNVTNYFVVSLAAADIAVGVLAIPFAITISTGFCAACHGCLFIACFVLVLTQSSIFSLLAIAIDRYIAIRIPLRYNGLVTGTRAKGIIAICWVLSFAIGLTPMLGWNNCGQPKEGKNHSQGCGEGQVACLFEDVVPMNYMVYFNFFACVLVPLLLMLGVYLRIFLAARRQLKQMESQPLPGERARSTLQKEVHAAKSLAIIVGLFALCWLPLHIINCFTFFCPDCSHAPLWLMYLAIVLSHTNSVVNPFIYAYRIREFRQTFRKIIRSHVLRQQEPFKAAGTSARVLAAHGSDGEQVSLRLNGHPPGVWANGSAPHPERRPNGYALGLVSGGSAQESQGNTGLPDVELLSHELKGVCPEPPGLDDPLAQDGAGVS

Adenosine receptor A2a [2] = target: Adenosine receptor A2a (Rattus norvegicus, UniProt P30543); assay: Displacement of [3H]MSX from A2A receptor in rat brain striatum membranes measured after 30 mins by liquid scintillation counting method; assay type: cell membranes
Adenosine receptor A2a (Rattus norvegicus, UniProt P30543), sequence (P30543 whole entry): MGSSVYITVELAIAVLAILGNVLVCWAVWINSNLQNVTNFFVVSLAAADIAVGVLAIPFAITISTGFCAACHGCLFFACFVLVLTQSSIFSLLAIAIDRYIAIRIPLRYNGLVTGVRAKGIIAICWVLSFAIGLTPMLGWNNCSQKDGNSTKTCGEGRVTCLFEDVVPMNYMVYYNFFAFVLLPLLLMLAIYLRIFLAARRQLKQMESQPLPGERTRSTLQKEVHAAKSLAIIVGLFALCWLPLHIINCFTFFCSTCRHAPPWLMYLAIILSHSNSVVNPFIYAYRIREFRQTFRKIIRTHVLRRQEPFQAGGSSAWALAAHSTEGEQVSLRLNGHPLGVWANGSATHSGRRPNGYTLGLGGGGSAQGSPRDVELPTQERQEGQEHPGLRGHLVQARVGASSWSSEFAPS

Adenosine receptor A2a [3] = target: T1, Adenosine receptor A2a; assay: Agonist activity at recombinant human A2A receptor expressed in CHO cells assessed as increase in forskolin-induced cAMP level at 1 uM preincubated for 20 mins prior to forskolin-stimulation measure after 5 mins by liquid scintillation counting method; assay type: functional, cell-based
Adenosine receptor A2a [4] = target: T1, Adenosine receptor A2a; assay: Displacement of [3H]MSX from human A2A receptor measured after 30 mins by liquid scintillation counting method
Adenosine receptor A1 [5] = target: T2, Adenosine receptor A1 (Rattus norvegicus, UniProt P25099); assay: Displacement of [3H]CCPA from A1 receptor in rat brain cortex membranes by liquid scintillation counting method; assay type: cell membranes
T2 sequence (P25099 whole entry): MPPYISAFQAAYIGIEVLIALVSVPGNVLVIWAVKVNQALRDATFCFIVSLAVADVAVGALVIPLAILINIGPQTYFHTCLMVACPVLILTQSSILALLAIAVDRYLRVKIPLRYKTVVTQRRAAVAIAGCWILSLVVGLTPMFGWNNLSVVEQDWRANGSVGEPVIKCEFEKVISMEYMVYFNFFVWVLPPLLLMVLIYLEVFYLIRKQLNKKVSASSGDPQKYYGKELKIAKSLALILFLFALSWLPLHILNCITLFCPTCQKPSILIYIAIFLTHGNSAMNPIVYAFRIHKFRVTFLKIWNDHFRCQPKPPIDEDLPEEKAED

[6] = target: T3, Amine oxidase [flavin-containing] B (Homo sapiens, UniProt P27338); assay: Inhibition of recombinant human MAO-B expressed in baculovirus infected BTI insect cells preincubated for 30 mins followed by addition of p-tyramine as substrate measured over 45 mins by Amplex Red MAO assay
T3 sequence (P27338 whole entry): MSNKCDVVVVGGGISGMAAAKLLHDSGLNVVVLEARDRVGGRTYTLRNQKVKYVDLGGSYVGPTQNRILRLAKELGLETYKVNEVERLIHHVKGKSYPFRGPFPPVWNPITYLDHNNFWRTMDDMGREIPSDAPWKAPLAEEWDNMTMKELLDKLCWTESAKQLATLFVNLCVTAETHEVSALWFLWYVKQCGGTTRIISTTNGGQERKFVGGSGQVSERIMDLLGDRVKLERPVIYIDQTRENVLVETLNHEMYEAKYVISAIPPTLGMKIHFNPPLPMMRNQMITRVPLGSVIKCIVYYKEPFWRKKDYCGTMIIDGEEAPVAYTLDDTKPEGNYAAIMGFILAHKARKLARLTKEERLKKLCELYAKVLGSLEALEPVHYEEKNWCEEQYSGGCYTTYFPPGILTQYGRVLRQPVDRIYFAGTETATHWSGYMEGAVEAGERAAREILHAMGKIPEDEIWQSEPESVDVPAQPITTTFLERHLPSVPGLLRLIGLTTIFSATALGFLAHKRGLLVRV

Adenosine receptor A1 [7] = target: T4, Adenosine receptor A1 (Homo sapiens, UniProt P30542); assay: Displacement of [3H]CCPA from human A1 receptor expressed in CHO cell membrane by liquid scintillation counting method; assay type: cell membranes
T4 sequence (P30542 whole entry): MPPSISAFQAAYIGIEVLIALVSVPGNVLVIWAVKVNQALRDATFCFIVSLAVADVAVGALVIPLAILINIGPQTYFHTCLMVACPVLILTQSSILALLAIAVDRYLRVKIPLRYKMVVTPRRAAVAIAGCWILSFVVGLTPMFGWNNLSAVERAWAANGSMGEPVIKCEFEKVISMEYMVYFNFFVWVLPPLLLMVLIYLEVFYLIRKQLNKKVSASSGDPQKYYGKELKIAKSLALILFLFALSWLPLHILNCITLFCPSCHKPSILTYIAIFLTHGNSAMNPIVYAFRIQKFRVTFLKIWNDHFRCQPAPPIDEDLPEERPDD

Adenosine receptor A2b [8] = target: T5, Adenosine receptor A2b (Homo sapiens, UniProt P29275); assay: Displacement of [3H]PSB-603 from human A2B receptor expressed in CHO cell membrane; assay type: cell membranes
T5 sequence (P29275 whole entry): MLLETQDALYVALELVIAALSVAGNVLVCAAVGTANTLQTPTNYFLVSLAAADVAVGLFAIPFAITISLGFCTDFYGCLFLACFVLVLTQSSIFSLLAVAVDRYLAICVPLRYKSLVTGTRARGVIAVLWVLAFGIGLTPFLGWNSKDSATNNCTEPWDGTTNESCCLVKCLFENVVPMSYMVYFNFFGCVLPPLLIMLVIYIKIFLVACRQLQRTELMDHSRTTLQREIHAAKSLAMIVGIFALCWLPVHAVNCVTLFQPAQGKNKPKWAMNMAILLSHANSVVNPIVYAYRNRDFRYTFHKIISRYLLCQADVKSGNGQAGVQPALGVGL

[9] = target: T6, Adenosine receptor A3 (Homo sapiens) (UniProt P0DMS8); assay: Displacement of [3H]PSB-11 from human A3 receptor expressed in CHO cell membrane at 10 uM by liquid scintillation counting method relative to control relative to control; assay type: cell membranes
T6 sequence (whole entry): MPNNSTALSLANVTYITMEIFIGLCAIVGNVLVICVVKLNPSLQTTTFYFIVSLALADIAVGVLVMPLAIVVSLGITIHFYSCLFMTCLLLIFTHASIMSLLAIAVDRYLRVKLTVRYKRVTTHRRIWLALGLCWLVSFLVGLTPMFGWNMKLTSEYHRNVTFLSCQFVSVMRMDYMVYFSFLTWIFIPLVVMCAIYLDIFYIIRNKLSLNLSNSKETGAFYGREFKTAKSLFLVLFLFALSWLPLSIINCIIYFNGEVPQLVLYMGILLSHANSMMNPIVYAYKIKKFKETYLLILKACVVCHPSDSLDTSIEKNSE

[10] = target: T7, Adenosine receptor A1 (Homo sapiens) (UniProt P30542); assay: Agonist activity at recombinant human A1 receptor expressed in CHO cells assessed as inhibition of forskolin-induced cAMP accumulation at 10 uM preincubated for 20 mins prior to forskolin-stimulation measure after 5 mins by liquid scintillation counting method; assay type: functional, cell-based
T7 sequence (whole entry): T4 sequence (P30542 whole entry)

[11] = target: T7, Adenosine receptor A1 (Homo sapiens); assay: Agonist activity at recombinant human A1 receptor expressed in CHO cells assessed as inhibition of forskolin-induced cAMP accumulation at 1 uM preincubated for 20 mins prior to forskolin-stimulation measure after 5 mins by liquid scintillation counting method; assay type: functional, cell-based
Adenosine receptor A3 = target: T8, Adenosine receptor A3 (Homo sapiens, UniProt P0DMS8); assay: Displacement of [3H]PSB-11 from human A3 receptor expressed in CHO cell membrane by liquid scintillation counting method relative to control; assay type: cell membranes
T8 sequence (P0DMS8 whole entry): T6 sequence (whole entry)

[12] = Thermodynamic solubility of the compound at pH 7.4; assay type: physicochemical; details: buffer, read-out: Therm_solubility
[13] = target: T3, Amine oxidase [flavin-containing] B; assay: Inhibition of recombinant human MAO-B expressed in baculovirus infected BTI insect cells at 10 uM preincubated for 30 mins followed by addition of p-tyramine as substrate measured over 45 mins by Amplex Red MAO assay relative to control; details: 0.75 h
[14] = target: T9, Adenosine receptor A2b (Homo sapiens) (UniProt P29275); assay: Displacement of [3H]PSB-603 from human A2B receptor expressed in CHO cell membrane at 1 uM relative to control; assay type: cell membranes
T9 sequence (whole entry): T5 sequence (P29275 whole entry)

[15] = target: T6, Adenosine receptor A3 (Homo sapiens); assay: Displacement of [3H]PSB-11 from human A3 receptor expressed in CHO cell membrane at 1 uM by liquid scintillation counting method relative to control relative to control; assay type: cell membranes
[16] = target: T10, Adenosine receptor A1 (Rattus norvegicus) (UniProt P25099); assay: Displacement of [3H]CCPA from A1 receptor in rat brain cortex membranes at 1.5 uM by liquid scintillation counting method; assay type: cell membranes
T10 sequence (whole entry): T2 sequence (P25099 whole entry)

[17] = target: T6, Adenosine receptor A3 (Homo sapiens); assay: Displacement of [3H]PSB-11 from human A3 receptor expressed in CHO cell membrane at 3 uM by liquid scintillation counting method relative to control relative to control; assay type: cell membranes
[18] = target: T9, Adenosine receptor A2b (Homo sapiens); assay: Displacement of [3H]PSB-603 from human A2B receptor expressed in CHO cell membrane at 0.3 uM relative to control; assay type: cell membranes
[19] = target: Adenosine receptor A2a (Rattus norvegicus) (UniProt P30543); assay: Displacement of [3H]MSX from A2A receptor in rat brain striatum membranes at 1 uM measured after 30 mins by liquid scintillation counting method relative to control; assay type: cell membranes
Adenosine receptor A2a (Rattus norvegicus), sequence (P30543 whole entry): as the sequence (P30543 whole entry) above

Adenosine receptor A2b [20] = target: T5, Adenosine receptor A2b; assay: Displacement of [3H]PSB-603 from human A2B receptor expressed in CHO cell membrane measured after 75 mins by liquid scintillation counting method; assay type: cell membranes
Adenosine receptor A1 [21] = target: T2, Adenosine receptor A1; assay: Displacement of [3H]MSX from rat A1 receptor measured after 75 mins by liquid scintillation counting method
Adenosine receptor A2a [22] = target: T1, Adenosine receptor A2a; assay: Displacement of [3H]MSX from human A2A receptor by liquid scintillation counting method
[23] = target: T9, Adenosine receptor A2b (Homo sapiens); assay: Displacement of [3H]PSB-603 from human A2B receptor expressed in CHO cell membrane measured after 75 mins by liquid scintillation counting method relative to control; assay type: cell membranes
Adenosine receptor A1 [24] = target: T2, Adenosine receptor A1; assay: Displacement of [3H]CCPA from rat A1 receptor by liquid scintillation counting method

Ki (Adenosine receptor A2a [2]) [nM] | Ki (Adenosine receptor A1 [5]) [nM] | IC50 [6] [nM] | Ki (Adenosine receptor A1 [7]) [nM] | Ki (Adenosine receptor A2b [8]) [nM] | Activity [9] [%] | Ki (Adenosine receptor A3) [nM] | solubility thermodynamic [12] [µg/mL] | inhibition at 10 µM [13] [%] | Activity [14] [%] | Activity [16] [%] | SMILES | other results
121 | 166 | > 10000 | 642 | > 1000 | 46 | ≥ 10000 | 700 (≈ 1690 µM) | 33 | 3 |  | Cn1c(=O)c2c(nc3n2CCN(Cc2csc(-c4cccs4)n2)C3)n(C)c1=O | Activity (Adenosine receptor A2a [1]): inactive; Activity (Adenosine receptor A2a [3]): inactive; Ki (Adenosine receptor A2a [4]): 203 nM; Activity [10]: inactive; Activity [11]: inactive
3900 | > 1500 | 132 |  | > 1000 |  | > 1000 |  |  | 11 | 15 | Cn1c(=O)c2c(nc3n2CCN(c2ccc(Br)cc2)C3)n(C)c1=O | Activity [15]: 2%
> 1000 | > 1500 | > 10000 |  | > 300 | 19 | > 10000 | 800 (≈ 2930 µM) | 27 | 10 | 13 | C#CCN1CCn2c(nc3c2c(=O)n(C)c(=O)n3C)C1 | Activity [17]: 19%; Activity [18]: 10%; Activity [19]: 28%
 |  | > 10000 | 265 |  | 21 | > 10000 |  | 36 |  |  | Cn1c(=O)c2c(nc3n2CCN(Cc2ccccc2)C3)n(C)c1=O | Ki (Adenosine receptor A2b [20]): > 1000 nM; Ki (Adenosine receptor A1 [21]): 598 nM; Ki (Adenosine receptor A2a [22]): 1060 nM; Activity [23]: 15%; Ki (Adenosine receptor A1 [24]): 79.3 nM
